Where no end group is shown, it is not given here.
Biological target: human 20S proteasome (Homo sapiens, UniProt P25786+P28066)
Experiment: Proteolytic stability assay with human 20S proteasome
Format: in vitro ADME
Conditions: 10 µM peptide, 0.025 mg/ml h20S, 25 mM Tris-HCl pH 8.0, 3 hours, 37 °C, RP-HPLC and MALDI TOF
Description: Blm-pep was incubated either with human or yeast 20S proteasome. Both assays were conducted in 25 mM Tris-HCl buffer (pH 8.0, measured at 20 °C), which for y20S contained 0.25 mM EDTA as an additive. The peptide and proteasome concentrations in 100 μl final solution were 10 µM and 0.025 mg/ml, respectively. Incubation was carried out for 3 hours at 37 °C. The reaction was stopped by addition of 5 μl of 10% TFA. Results were analyzed using RP-HPLC and MALDI TOF. Prior to MS analysis the samples were desalted using C18 spin columns (Pierce).

**Q.** How did the “proteolytic stability with human 20S proteasome” value turn out when KYFTGSKLWRSYYA [Blm-pep] was run?
**A.** The value was “digested”.

Source: PMC5522460, “Crystal structure of a low molecular weight activator Blm-pep with yeast 20S proteasome – insights into the enzyme activation mechanism” (Scientific Reports, 2017)
